Results taken from US20230257374A1, “NOVEL KRAS G12C PROTEIN INHIBITOR, PREPARATION METHOD THEREFOR, AND USE THEREOF” (INNOVENT BIOLOGICS (SUZHOU) CO., LTD., priority 2019, published 2023).

Experiments:
[1] = system: H1373 cell line (K-RAS G12C); experiment: cells; format: cell-based; details: Homo sapiens, NCI-H1373, 96 h, read-out: H1373 (K-RAS G12C) IC50
Experimental: (§1) a) On day 1, seed cells were placed in T75 a flask. b) On day 3, the medium was taken out and washed once with DPBS. c) Cells were trypsinized with 2 mL TrypLE™ Express enzyme at room temperature (RT) or 37° C. until cells detached. d) 5 mL of fresh medium was added to suspend the cells, and then the suspension was centrifuged at 1000 rpm and room temperature for 5 min. e) The supernatant was discarded, and the cells were resuspended in 5 mL of fresh medium and counted using Countess™ H. f) The cells were seeded back into the T75 flask for further culture or placed into an assay plate for 3D cell proliferation assay.
(§2) The cells were seeded at a density of 600 cells/well in a 384-well plate with 40 μL of medium per well and a final DMSO concentration of 0.5%. b) On day 4, a 3D CTG reagent was added to each well, followed by shaking at room temperature for 1 h. c) The signals were recorded using Envision.
(§3) a) Robustness was examined using 0.5% DMSO and data of blank control medium: H=mean (DMSO); L=mean (medium); SD (H)=STDEV (DMSO); SD (L)=STDEV (medium);
(§4) Y=peak valley value+(peak top value−peak valley value)/(1+10^((Log IC50−X)×HillSlope));
(§5) X: logarithm of compound concentration; Y: percent inhibition (% inhibition); Peak top and peak valley values: the plateau period units are the same as Y; log IC50: the same logarithmic unit as X; HillSlope: slope coefficient or Hill slope.

[2] = system: MIA PaCa-2 cell line (K-RAS G12C); experiment: cells; format: cell-based; details: Homo sapiens, MIA PaCa-2, 96 h, read-out: MIA PaCa-2 (K-RAS G12C) IC50
Experimental: as §1, §2, §3, §4, §5

[3] = system: H358 cell line (K-RAS G12C); experiment: cells; format: cell-based, human; details: Homo sapiens, NCI-H358, 96 h, read-out: H358 (K-RAS G12C) IC50
Experimental: as §1, §2, §3, §4, §5

in vitro [4] = details: microsomes, pH 7.4
Experimental: To examine the in vitro metabolic stability of the test compounds in liver microsomes of different species, representative compounds were selected, and their stability was evaluated by measuring the concentration of the test compounds in the incubation system using LC/MS/MS and calculating their intrinsic clearance in the microsome system.
The method is specifically as follows: each compound was first dissolved in DMSO to prepare a 200 μM working solution and added to the system solution at the time of testing to form a solution with a final concentration of 1 μM.
The microsomes were stored in a −80° C. freezer.
Preparation of incubation system: an incubation system was prepared as described in the table below.
25 μL, of NADPH or phosphate buffered saline was transferred to the incubation system described above, and 2 μL, of 200 μM of the test compound or verapamil was added. The sample with NADPH added was prepared in duplicate; the NADPH negative sample was prepared in single parallel. 30 μL, of suspension was taken at 0.5, 5, 15, 30 and 60 minutes. The reaction system was terminated by adding 180 μL, of acetonitrile containing an internal standard and vortexed for 10 min. […] 100 μL, of the supernatant was transferred to a feeding plate, and 100 μL, of purified water was added. The mixture was well mixed for UPLC-MS/MS analysis.
The results based on the data were obtained by calculation according to the peak area ratio, and the peak area was detected through an extracted ion chromatogram.
The slope value (k) was determined by linear fitting of the natural logarithm of drug elimination percentage over time.

[5] = system: NCI-H358 tumor (K-RAS G12C mutation); format: in vivo, BALB/c nude mice
Experimental: The cells were digested with trypsin-EDTA twice a week for passaging as per conventional practice. When the cell saturation reached 80%-90% and a required amount was achieved, the cells were collected and counted for later use. […] 5% DMSO/5% Solutol/90% water was used as a blank control. 3) Tumor inoculation and drug administration: BALB/c nude mice, female, 6-8 weeks old, weighing 18-20 g. The experiment started after 3-7 days of adaptive feeding. 0.1 mL of NCI-H358 cells (5×10^6 cells) were inoculated subcutaneously on the right back of each mouse. The mice were grouped for administration when the average tumor volume reached approximately 150 mm^3. The animals were weighed before administration and the tumor volume was measured. Grouping was randomly performed according to the tumor volume.
Animals were monitored daily for health and death, and routine examinations include observation of the effect of tumor growth and drug treatment on the daily performance of the animals, such as behavioral activities, food and water intake, weight changes (measured once every other day), appearance, or other abnormal conditions. Animal mortality and side effects within each group were recorded based on the number of animals in the group.
Tumor diameters were measured 2-3 times weekly using a vernier caliper.
The tumor volume was calculated as follows: […]
where a and b represent the long and short diameters of the tumor, respectively.
The anti-tumor therapeutic effect of the compound was evaluated by tumor growth inhibition rate TGI (%) or relative tumor proliferation rate T/C (%).
TGI (%) was calculated as follows: […]
T/C (%) was calculated as follows: […]
where TRTV represents the relative tumor volume of the treatment group; CRTV represents the relative tumor volume of the solvent control group.
Based on the results of tumor measurement, the relative tumor volume (RTV) was calculated as follows: […]
where V0 represents the average tumor volume measured at the time of grouping and administration (i.e., d0), Vt represents the average tumor volume in a certain measurement, and TRTV and CRTV take the data on the same day.
After the completion of the experiment, tumors were weighed, and the percentage of Tweight/Cweight was calculated, where Tweight and Cweight represent the tumor weights of the treatment group and the solvent control group, respectively.
Data calculation and analysis: T test was employed for comparison between two groups. One-way ANOVA was employed for comparison between three or more groups. If there is a significant difference in F-values, multiple comparisons should be made after ANOVA analysis. All data analyses were performed with SPSS 17.0. p<0.05 was defined as a significant difference.

[6] = human, plasma, 5 μM
Experimental: (§6) To examine the stability of the test compounds in plasma, representative compounds were selected for evaluation.
(§7) Preparation of stock solution: a test compound was dissolved in DMSO to prepare a 1 mM stock solution for later use; Propantheline Bromide was dissolved in acetonitrile to prepare a 1 mM stock solution as a positive control for later use.
(§8) To each well was added 2 μL of the stock solution of the test compound and the stock solution of the positive control such that the final concentrations were 5 KM and the concentration of the organic solvent was 0.5%. Each compound was prepared in duplicate, followed by incubation at 37° C. 50 μL of samples were taken from the reaction samples in equal amounts at 0, 30, 60, 120, 180 and 240 minutes, and 450 μL of cold acetonitrile containing an internal standard was added to terminate the reaction. […] 100 μL of the supernatants were transferred to a new plate, dilute with ultra-pure water, and analyzed by LC-MS/MS.
(§9) Data results were calculated according to peak area ratios.
(§10) The percentage of remaining compound for each time point was calculated as follows:
(§11) Remaining percentagemin(%)=peak area ratiosmin/peak area ratiomin×100%
(§12) where peak area ratios represents the peak area ratio of the test compound to the internal standard compound at t min; peak area ratiomin represents the peak area ratio of the test compound to the internal standard compound at 0 min (initial).

in vitro [7] = details: human, plasma
Experimental: as §6, §7, §8, §9, §10, §11, §12

[8] = Day 0 (at grouping, before administration), 15 mg/kg PO QD group

Structure (SMILES): [2H]C([2H])([2H])N1CCC[C@H]1COc1nc2c(c(N3CCN(C(=O)C=C)[C@@H](CC#N)C3)n1)CCN(c1cccc3cccc(Cl)c13)C2 [Compound 41, 2-((S)-1-acryloyl-4-(7-(8-chloronaphthalene-1-yl)-2-(((S)-1-(methyl-d3)pyrrolidin-2-yl)methoxy)-5,6,7,8-tetrahydropyrido[3,4-d]pyrimidin-4-yl)piperazin-2-yl)acetonitrile]
- IC50 [1]: 0.18 nM
- IC50 [2]: 0.31 nM
- IC50 [3]: 0.28 nM
- half-life at 1 μM (in vitro [4]; ICR (CD-1), mouse): 14.6 min
- microsomal CLint at 1 μM (in vitro [4]; ICR (CD-1), mouse): 95.3 µL/min/mg
- half-life at 1 μM (in vitro [4]; human): 26 min
- microsomal CLint at 1 μM (in vitro [4]; human): 53.4 µL/min/mg
- Day 0 Body weight (g) Waverage ± SEM [5, 8]: 22.7 ± 0.4 g
- Day 0 Tumor volume (mm^3) Vaverage ± SEM [5, 8]: 151 ± 8 mm^3
- Day 21 Body weight (g) Waverage ± SEM ([5]; Day 21, 15 mg/kg PO QD): 23.4 ± 0.6 g
- Day 21 Tumor volume (mm^3) Vaverage ± SEM ([5]; Day 21, 15 mg/kg PO QD): 168 ± 20 mm^3
- Tumor inhibition rate TGI (%) ([5]; Day 21, 15 mg/kg PO QD): 97.0%
- Tumor regression ([5]; Day 21, 15 mg/kg PO QD, animals with regression / group of 8): 2/8
- Remaining percentage (%) 0 min ([6]; 0 h): 100.00%
- Remaining percentage (%) 30 min ([6]; 0.5 h): 96.01%
- Remaining percentage (%) 60 min ([6]; 1 h): 75.85%
- Remaining percentage (%) 120 min ([6]; 2 h): 56.99%
- Remaining percentage (%) 180 min ([6]; 3 h): 34.80%
- Remaining percentage (%) 240 min ([6]; 4 h): 26.83%
- half-life at 5 μM (in vitro [7]): 119 min
